Reference: EP0005541A2, “Substituted piperidine, morpholine or piperidone derivatives, fungicides containing these compounds, process for their preparation and their use, and the use of these compounds as fungicides” (F. HOFFMANN-LA ROCHE & CO. Aktiengesellschaft, priority 1978, dated 1979)

Assays:
Assay type in all cases: in vivo
Erysiphe graminis = Erysiphe graminis protective spray test on barley seedlings (greenhouse); settings: barley seedlings HERTA, infected 2 days after spraying, read 7 days after infection vs infected untreated control
Protocol: 30-40 Gerstenkeimlinge der Sorte HERTA (verteilt auf 2 Töpfe mit 7 cm Durchmesser) wurden jeweils im Einblattstadium mit einer wässerigen Dispersion der Testsubstanz (wie allgemein üblich aufbereitet als Spritzpulver) allseitig gründlich besprüht und anschliessend bei 22-26°C, 80% rel. Luftfeuchtigkeit und einer Photoperiode von 16 Stunden im Gewächshaus weiterkultiviert. Die Infektion erfolgte 2 Tage nach der Behandlung durch Bestäuben der Versuchspflanzen mit Kon dien von Erysiphe graminis. 7 Tage nach der Infektion wurde ::ie durch Erysiphe graminis befallene Blattfläche in % gegenüber derjenigen der infizierten, nicht behandelten Kontrolle ermittelt. Die Resultate sind in Tabelle I zusammengefasst.

Puccinia coronata = Puccinia coronata protective spray test on oat seedlings; settings: oat seedlings FLAEMINGSKRONE, infected 2 days after spraying, read on day 9 after infection vs infected untreated control
Protocol: 30-40 Haferkeimlinge der Sorte FLAEMINGSKRONE (verteilt auf 2 Töpfe mit 7 cm Durchmesser) wurden jeweils im Einblattstadium mit einer wässerigen Dispersion der Testsubstanz (wie allgemein üblich aufbereitet als Spritzpulver) allseitig gründlich besprüht und anschliessend in einer Klimakabine bei 17°C. 70-80% rel. Luftfeuchtigkeit und einer Photoperiode von 16 Stunden weiterkultiviert. Nach 2 Tagen erfolgte die Infektion der Versuchspflanzen durch Besprühen mit in dest. Wasser suspendierten Uredosporen (300'000 Sporen/ml) vor. Puccinia coronata. Danach wurden die Pflanzen während 24 Stunden bei 20°C und einer Luftfeuchtigkeit von über 90W im Dunkeln inkubiert und anschliessend in ein Gewächshaus mit einer Temperatur von 22-26 °C, einer rel. Luftfeuchtigkeit von 70% und einer Photoperiode von 18 Stunden übe führt. Am 9. Tage nach der Infektion wurde die durch Pucrinia coronata befallene Blattfläche in % gegenüber der infizierten, nicht behandelten Kontrolle ermittelt. Die ResLltate sind in Tabelle I zusammengefasst.

Venturia inaequalis = Venturia inaequalis protective spray test on apple seedlings; settings: infected 2 days after spraying, read on day 13 after infection vs infected untreated control
Protocol: 3 Apfelpflänzchen (verteilt auf 3 Töpfe mit 5 cm Durchmesser) aus Samen der Sorte GOLDIN DELICIOUS wurden im 4- bis 5-Blattstadium mit einer wässerigen Dispersion der Testsubstanz (wie allgemein üblich aufbereitet als Spritzpulver) allseitig gründlich besprüht. Die behandelten Pflanzen wurden anschliessend während 2 Tagen bei 17°C, 70-80%rel. Luftfeuchtigkeit und einer Photoperiode von 14 Stunden weiterkultiviert. Danach erfolgte die Infektion der Apfelsämlinge durch Besprühen mit in dest. Wasser suspendierten Konidien (200'000 Konidien/ml) von Venturia inaequalis. Nach der Infektion wurden die Pflanzen im Dunkeln während 48 Stunden bei 16-18°C und einer rel. Luftfeuchtigkeit von über 90% inkubiert und anschliessend in ein schattiertes Gewächshaus mit einer Temperatur von 22-26 °C und einer rel. Luftfeuchtigkeit von über 80% überführt. Am 13. Tage nach der Infektion erfolgte die Ermittlung der durch Venturia inaequalis befallenen Blattfläche gegenüber der infizierten, nicht behandelten Kontrolle. Die Resultate sind in Tabelle II zusammengefasst.

| SMILES | Wirkung (in %) Erysiphe graminis (Erysiphe graminis; 5 mg/l Spritzbrühe) | Wirkung (in %) Erysiphe graminis (Erysiphe graminis; 16 mg/l Spritzbrühe) | Wirkung (in %) Erysiphe graminis (Erysiphe graminis; 50 mg/l Spritzbrühe) | Wirkung (in %) Erysiphe graminis (Erysiphe graminis; 160 mg/l Spritzbrühe) | Wirkung (in %) Erysiphe graminis (Erysiphe graminis; 500 mg/l Spritzbrühe) | Wirkung (in %) Puccinia coronata (Puccinia coronata; 5 mg/l Spritzbrühe) | Wirkung (in %) Puccinia coronata (Puccinia coronata; 16 mg/l Spritzbrühe) | Wirkung (in %) Puccinia coronata (Puccinia coronata; 50 mg/l Spritzbrühe) | Wirkung (in %) Puccinia coronata (Puccinia coronata; 160 mg/l Spritzbrühe) | Wirkung (in %) Puccinia coronata (Puccinia coronata; 500 mg/l Spritzbrühe) | Wirkung (in %) Venturia inaequalis (Venturia inaequalis; 5 mg/l Spritzbrühe) | Wirkung (in %) Venturia inaequalis (Venturia inaequalis; 16 mg/l Spritzbrühe) | Wirkung (in %) Venturia inaequalis (Venturia inaequalis; 50 mg/l Spritzbrühe) | Wirkung (in %) Venturia inaequalis (Venturia inaequalis; 160 mg/l Spritzbrühe) | Wirkung (in %) Venturia inaequalis (Venturia inaequalis; 500 mg/l Spritzbrühe) |
| --- | --- | --- | --- | --- | --- | --- | --- | --- | --- | --- | --- | --- | --- | --- | --- |
| CC(CN1CCC2(CC1)OCCO2)=C(C)c1ccc(C(C)(C)C)cc1 [1-[3-(p-tert.-Butyl-phenyl)-2,3-dimethyl-2-propenyl]-4,4-äthylendioxy-piperidin] | 80% | 98% | 98% | 100% | 100% | 98% | 100% | 100% | 100% | 100% | 0% | 0% | 20% | 37% | 83% |
| CC(CN1CCC(=O)CC1)=C(C)c1ccc(C(C)(C)C)cc1 [1-[3-(p-tert.-Butyl-phenyl)-2,3-dimethyl-2-propenyl]-4-piperidon] | 0% | 60% | 100% | 100% | 100% | 0% | 25% | 100% | 100% | 100% | 0% | 10% | 20% | 37% | 83% |
| CC(Cc1ccc(C(C)(C)C)cc1)CN1CCC2(CC1)OCCO2 (centres unmarked) [1-[3-(p-tert.-Butyl-phenyl)-2-methyl-propyl]-4,4-äthylendioxy-piperidin] | 30% | 50% | 70% | 85% | – | 90% | 95% | 100% | 100% | 100% | – | – | – | – | 20% |
| CC(Cc1ccc(C(C)(C)C)cc1)CN1CCC(=O)CC1 (centres unmarked) [1-[3-(p-tert.-Butyl-phenyl)-2-methyl-propyl]-4-piperidon] | 75% | 80% | 93% | 100% | – | 0% | 0% | 0% | 0% | 98% | 0% | 0% | 0% | 10% | 90% |
| CC(Cc1ccc(C(C)(C)CCl)cc1)CN1CC(C)OC(C)C1 (centres unmarked) [4-/3-[p-(2-Chlor-1,1-dimethyl-äthyl)-phenyl]-2-methyl-propyl/-2,6-dimethyl-morpholin] | 60% | 75% | 90% | 100% | 100% | 0% | 0% | 20% | 100% | – | 13% | 67% | 93% | 95% | 95% |
| CC(CN1CCCCC1)C(O)c1ccc(C(C)(C)C)cc1 (stereo not drawn) [α-(p-tert.-Butyl-phenyl)-β-methyl-1-piperidin-propanol] | 75% | 80% | 87% | 98% | 98% | 10% | 30% | 80% | 100% | 100% | 10% | 20% | 43% | 93% | 100% |
